SMILES | melting point
CNC(=O)C(SC)c1cc(Cl)cc(C(=O)c2ccccc2)c1N (stereo unspecified) | 170 to 171 °C
CC(C)N1C(=O)c2ccc(Cl)nc2C1=O | 122 to 123 °C
CC(=O)C(O)C1OC(n2cc(Br)c(=O)[nH]c2=O)CC1(O)C(C)=O (stereo unspecified) | 116 to 120 °C
COc1cc(C(C)C)c2c(c1)S(=O)(=O)N(COc1cc(C(F)(F)F)nn1-c1ncccn1)C2=O | 133 to 134 °C
CN(O)C(=O)NC1CCCc2sccc21 (stereo unspecified) | 98 to 102 °C
O=C1CCC(=O)N1Nc1c(Cl)cc(Cl)cc1Cl | 114 to 115 °C
CCOC(=O)COn1ccncc1=O | 98 to 100 °C
CNN(NC)C(=O)Nc1cccc2c1C(=O)c1c-2n[nH]c1C(C)C | 231 to 233 °C
Clc1ccc(/C=C/c2ccc[nH]2)cc1 | 172 °C
CC(=O)OC1CSC(Oc2cc(Br)cnc2F)C(OC(C)=O)C1OC(C)=O (stereo unspecified) | 120 to 122 °C
CC[C@H]1c2cccn2-c2cc(F)c(F)cc2N1S(=O)(=O)c1ccc(O)c(C)c1 | 161 to 163 °C
CCOC(=O)c1c(CBr)n(C)c2cc(Br)c(OC(C)=O)cc12 | 179 to 180 °C
CC[C@H]1[C@H](O)CN1c1cc2c(cc1F)c(=O)c(C(=O)O)cn2C1CC1 (relative stereo) | 250 to 255 °C
CN(C)C=Nc1nc(Cl)c(N=CN(C)C)c(Cl)n1 | 116 to 119 °C
O=C(Nc1ccc(CN2C(=O)[C@H]3CCC[C@H]3N(C(=O)CN3C(=O)c4ccccc4C3=O)c3ccccc32)cc1)c1ccccc1F (relative stereo) | 238 to 240 °C
CCC(COC)(OC)c1cccc(OCOC)c1 (stereo unspecified) | 74 to 75 °C
C=CCNc1nc(NC23CC4CC(CC(C4)C2)C3)c2scc(C)c2n1 | 107 to 109 °C
COc1c(C)cc(C(=O)c2ccc(Cl)cc2)c(OC)c1OC | 99.5 to 100 °C
CC1Cc2cc3c(cc2C(c2ccc([N+](=O)[O-])cc2)=NN1C(=O)C(C)(C)C)OCO3 (stereo unspecified) | 164 to 166 °C
O=[N+]([O-])c1ccc2c(c1)C(c1ccccc1F)=NCc1nc(CO)cn1-2 | 230 to 231 °C

SMILES | melting point
COc1cc(CO)c([N+](=O)[O-])cc1OCCCCCCOC(C)=O | > 220 °C
CC(=O)Nc1ccc(/C=C/C(=O)NCC(=O)N(C)c2ccc(C)c(CO)c2C)cn1 | 215 to 216 °C
CCCOc1nc(C(F)(F)C(F)(F)F)cc(=O)n1-c1cc(O)c(Cl)cc1F | 109 to 111 °C
Nc1ccc(C2CCNCC2)cc1 | 85 to 87 °C
O=C(COc1ccc(Cl)c(Cl)c1)N1CCC2(CC1)Cn1cc([N+](=O)[O-])nc1O2 | 218 to 220 °C
OCc1c(F)cc(O)cc1Cl | 125 to 127 °C
Cn1nnnc1-c1cn(C)c2cc(Br)ccc2c1=O | 292 to 294 °C
Cc1ccnc(C(=O)c2[nH]c3cc(Cl)ccc3c2N)c1 | 195 to 196 °C
CN(C)c1ccc(-c2nc3c(N[C@H]4[C@@H](C(N)=O)[C@@H]5C=C[C@H]4C5)c(Br)cnc3[nH]2)cc1 | 264 to 265 °C
COc1cc(C(=O)NS(=O)(=O)c2ccccc2C)ccc1Cc1cn(C(=O)NC(c2ccccc2)c2ccccc2)c2ccc(NC(=O)OC3CCCC3)cc12 | 253 to 254 °C
CCOC(=O)Cc1c(C(=O)O)c(C)c(C(=O)c2ccc(C)cc2)n1C | 200 to 202 °C
CSc1ccc(CC2=C(O)CSC2=O)cc1 | 206 to 208 °C
O=C(O)c1ccc2c(c1)C=C(n1ccnc1)CC2 | 323 to 326 °C
CC(=O)Nc1ccc(O)cc1Cl | 128 to 129 °C
COc1cc2cc(CO)c(CO)c(-c3ccnc(NC(C)CCCO)c3)c2cc1OC (stereo unspecified) | 57 to 61 °C
CCNC(=O)c1cc(N)c([N+](=O)[O-])cc1OC | 235 to 239 °C
CCc1cc2c(s1)-n1c(Cl)nnc1CN=C2c1ccccc1Cl | 133 to 135 °C
COc1ccccc1[N+]1([O-])CCNCC1 | 157 to 160 °C
CCOc1nn(C(=O)NS(=O)(=O)c2c(C)csc2C(=O)OC)c(=O)n1C | 169 °C
Cc1c(O)cnn(C(C)(C)C)c1=O | 236 to 239 °C

SMILES | melting point
CC1CCCCC1N(Cc1ccc(C(=O)NC(C)(C)C(=O)O)cc1)S(=O)(=O)c1ccc(C(F)(F)F)nc1 (stereo unspecified) | 131 to 132 °C
S=c1[nH]c(=S)c2[nH]cnc2[nH]1 | 196 to 200 °C
CC(=O)CC(=O)Nc1ccc(C(F)(F)F)cc1 | 144 to 145 °C
Cc1cc2oc(=O)c3c(c2cc1N)CCN(CCN1CC2CCC(CC2)C1)C3 | 142 to 143 °C
CCOC(=O)CC1Nc2ccccc2CC(N)C1=O (stereo unspecified) | 71 to 73 °C
CC(C)(C)NC(=O)Nc1nc2nc(NCCCN3CCOCC3)ncc2cc1-c1c(Cl)cccc1Cl | 236 to 240 °C
NS(=O)(=O)c1cccc2cncn12 | 148 to 151 °C
CCOc1c(C(=O)c2cccs2)cnc2[nH]ncc12 | 202 to 205 °C
CCC1(C)SC(=NOC(=O)N(C)C(C)=O)N=C1C (stereo unspecified) | 98 to 101 °C
Clc1cccc(Nc2ncnc3[nH]nc(NCc4cccnc4)c23)c1 | 204 to 206 °C
Clc1ccc2oc(Cl)nc2c1 | 46 to 48 °C
COc1cc2c(cc1OC)N(C(=O)c1ccc(-c3ccccc3C(F)(F)F)c(C)c1)Cc1ccc(C(=O)N3CCC(=O)CC3)n1C2 | 132 to 134 °C
CCCCOc1ncc(I)cc1C(N)=O | 163 to 166 °C
COC(=O)c1ccc(-c2ccc(OC)c(C(C)(C)C)c2)s1 | 94 to 95 °C
CC(C)CC(NC(=O)OC(C)(C)C)C(O)c1ccccn1 (stereo unspecified) | 83 to 84 °C
O=C(c1ccccc1Cl)c1ccc(O)c(Cl)c1Cl | 74 to 77 °C
CC1(C)OC(=O)Nc2c(O)cc(-c3cc(F)cc(C#N)c3)cc21 | 197 to 198 °C
CCN(CC)C(=O)C=Cc1cc([N+](=O)[O-])ccc1C | 61.9 °C
CCCCCCCCOC(=O)c1cnc(C(=O)O)cn1 | 142 to 143 °C
Cc1ccc([S@@](C)=O)cc1 | 75 to 76 °C

Now from value to compound:

melting point | SMILES
158 °C | COC(=O)CC1CCCN(C(=O)c2ccc(N3CCCC3)cc2Cl)c2ccccc21 (stereo unspecified)
60 to 61 °C | CCOCOC(=O)Cc1c(C)n(C(=O)c2ccc(Cl)cc2)c2ccc(OC)cc12
156 °C | COc1ccc(N2CCSC2=N)c([N+](=O)[O-])c1
113 to 115 °C | CCS(=O)(=O)N(C)Cc1ccc2[nH]cc(CCCN3CCN(c4ncncc4OC)CC3)c2c1
197 to 199 °C | Nc1ncccc1-c1nc2cc(-c3cccnc3)cnc2n1-c1ccc(CNS(=O)(=O)C2CC2)cc1
90 to 91 °C | Cn1ncc(-c2ccc(OCCCCl)cc2)cc1=O
131 to 132 °C | CCc1cc(OCc2ccc3oc(-c4ccccc4C(=O)OC)nc3c2)c2c(n1)CCCC2
205 to 206 °C | COC(=O)Nc1nccc(Oc2ccc3c(C(=O)Nc4ccc(CN5CCN(C)CC5)c(C(F)(F)F)c4)csc3c2)n1
187 to 189 °C | O=C1C(Cc2ccccc2)SC(=S)N1c1nc2ccccc2s1 (stereo unspecified)
85 to 88 °C | BrCc1ccccc1-c1ccccc1CBr
180 to 183 °C | CC(C)c1cccc(C(C)C)c1NC(=O)Nc1nc(-c2ccccc2)ns1
74 to 90 °C | CN1CC(CCN(C)c2ccccc2)N(C)c2nc3ccccc3n2C1=O (stereo unspecified)
117 to 121 °C | CC(C)Cc1ccc(CCOC(=O)c2cc(O)c3c(c2)C(=O)c2cccc(O)c2C3=O)cc1
250 to 251 °C | Cc1ccc(Sc2c(SCc3ccccc3)cc(C(=O)O)cc2S(N)(=O)=O)cc1
133 to 136 °C | C#CCOCCn1c(CN2CCCN(C)CC2)nc2ccccc21
201 to 202 °C | O=C(Nc1cccc(C(F)(F)F)c1)c1cccc2cc(O)ccc12
242 to 244 °C | S=c1[nH]c2ccccc2cc1-c1ccccc1
182 to 183 °C | CC(=Cc1ccc2ccccc2n1)C(=O)NO
174 to 177 °C | O=C(O)C=NOC(CCCc1ccc(Cl)cc1)c1ccc(OCc2ccc3ccccc3n2)cc1 (stereo unspecified)
230 to 234 °C | O=C(N[C@@H](Cc1ccc(NC(=O)c2c(Cl)cccc2Cl)cc1)C(=O)O)OCC1c2ccccc2-c2ccccc21
190 to 193 °C | Cn1nncc1COc1nn2c(-c3ccccc3)nnc2cc1-c1ccccc1

melting point | SMILES
113 to 115 °C | Oc1cccc(CN2CCOCC2)c1
75 to 80 °C | Cc1oc(-c2ccccc2)nc1CCCc1ccc(CC(C(=O)O)c2cccc(-c3ccccc3)c2)cc1 (stereo unspecified)
54 to 55 °C | COc1ccc(N2CCN(CCOCc3ccccc3)C2=O)cc1
109 to 112 °C | CC1CC=CCN1Cc1ccc(O)cc1 (stereo unspecified)
171 to 172 °C | O=C(Nc1noc2ccccc12)N1CCN(c2nc(-c3ccccc3)co2)CC1
78 °C | O=C(O)C1Cc2ccccc2N1S(=O)(=O)c1ccc(-c2cccc(Cl)c2)cc1 (stereo unspecified)
150 to 160 °C | O=C(NCCN1CCOCC1)Nc1nc2ccc(OC(c3c(Cl)cccc3Cl)C(F)(F)F)cc2s1 (stereo unspecified)
169 to 171 °C | Nc1c(C(=O)O)cnn1-c1ccc(C(F)(F)F)cc1
128 °C | CS(=O)(=O)c1ccc(-c2cc(C(=O)c3ccncc3)sc2N2CCOCC2)cc1
149 to 150 °C | COc1ccc(C(=O)c2c(N)sc3c2CCN(Cc2ccccc2)C3)cc1OC
95 to 98 °C | O=C(O)C(c1ccccc1)n1cnc2[nH]ncc2c1=S (stereo unspecified)
217 to 219 °C | CN1c2cccc(CC(=O)O)c2Sc2c(C(N)C(=O)OCC3c4ccccc4-c4ccccc43)cccc21 (stereo unspecified)
101 °C | O=S(=O)(c1cccc(F)c1)N1CCCC1c1ccc(F)cc1 (racemic)
68 to 71 °C | COC(=O)c1ccc(OCCCCC2Cc3c(c(OC)c(OC)c(OC)c3OC)C2)cc1
151 °C | COc1cccn2c(=O)c(CCN3CCc4oc5ccccc5c4C3)c(C)nc12
129 to 130 °C | COC(=O)C(=O)c1ccc(S(=O)CCOc2ccc3ccccc3c2)cc1 (stereo unspecified)
64 to 65 °C | CCN(CC)CCOc1ccc(C(O)(CC)c2cccc(Cl)c2)cc1 (stereo unspecified)
215 to 216 °C | COc1ccc(Cn2c(=O)c3cnc(Nc4ccc(N5CCN(C)CC5)cc4)nc3n(C(C)C)c2=O)cc1
270 °C | CS(=O)(=O)N[C@H]1CC[C@H](Nc2nccc(-n3ncc4ccccc43)n2)CC1
98 to 99 °C | CO/N=C(/C(N)=O)c1ccccc1Oc1ccccc1
